“And” between values parts separate entries of the source, which are not always exact repeats. Equal entries are not always repeated.
Assays:
Type in all cases: cell-based, human
PC9/GR cells [1] = assay: Scratch (wound) healing assay; conditions: for relative wound healing area: vehicle control 44.08%
Protocol: PC9/GR cells were grown to 90% confluence. A uniform wound was created in the monolayer using a sterile 200 µL pipette tip. The initial wound area was imaged immediately (0 h) using phase-contrast microscopy. After 24 h of incubation in complete medium, the wound area was re-imaged. The relative wound closure rate was calculated from the change in wound area using ImageJ software (version 1.53).

[2] = system: p38 activation / C/EBPβ expression; assay: Western blot of p38, p-p38 and C/EBPβ; conditions: PC9/GR
From the text: (§1) We obtained the gene promoter sequence of TM7SF2 from the NCBI database and utilized online databases JASPAR, UCSC, and hTFtarget to predict potential transcription factors for TM7SF2 (Table S2). […] Some studies indicate that p38 can induce C/EBPβ expression through the activation of p38 MAPK, JNK, or ERK in different experimental environments. We conducted Western blot experiments to detect changes in C/EBPβ expression and p38 protein activation and used ChIP and qPCR to determine whether C/EBPβ can target the TM7SF2 promoter region. […] Furthermore, the strength of this direct binding may be related to intracellular cholesterol levels.
(§2) Western blot: Proteins extracted with RIPA buffer were quantified (BCA), separated by SDS-PAGE, transferred to PVDF membranes, and probed with antibodies. Signals were detected by ECL.

PC9/GR cells [3] = assay: Intracellular total cholesterol quantification, PC9/GR cells
Protocol: (§3) Following sample collection, intracellular total cholesterol levels were quantified using a commercial Total Cholesterol (T-CHO) assay kit (Nanjing Jiancheng Bioengineering Institute, Nanjing, China) according to the manufacturer’s protocol. Cells were treated as indicated 24 h prior to analysis. Total cellular protein was extracted, and protein concentration was determined using a bicinchoninic acid (BCA) assay. Protein aliquots were loaded in duplicate into a 96-well microplate. Reagents were added sequentially as specified in the kit instructions. After incubation at 37 °C for 10 min, absorbance was measured at 510 nm using a microplate reader. Total cholesterol content was normalized to cellular protein concentration and expressed as μg cholesterol per mg protein.

PC9 cells [4] = assay: Intracellular total cholesterol quantification, PC9 cells; conditions: PC9, 24 h treatment
Protocol: as §3

PC9/GR cells [5] = assay: Transwell migration assay
Protocol: Cell migration was assessed using Transwell chambers (8.0 µm pore size; Corning, NY, USA). Cells suspended in serum-free medium were seeded into the upper chamber. The lower chamber contained 1 mL of DMEM supplemented with 10% FBS as a chemoattractant. Following 24 h of incubation, non-migrated cells on the upper membrane surface were removed. Migrated cells adherent to the lower membrane surface were fixed, stained with 0.1% crystal violet (Solarbio, China) for 15 min, and imaged. Migrated cells were quantified by counting five random fields per insert under a light microscope (Olympus, Tokyo, Japan).

TM7SF2 [6] = assay: Transcriptome sequencing, differentially expressed genes; conditions: 4l-treated vs untreated PC9/GR
From the text: (§4) By comparing PC9/GR treated with the small molecule compound 4l against untreated PC9/GR controls, we identified significant differentially expressed genes (DEGs). […] The results of the GO enrichment analysis further emphasized the significant impact of the small molecule compound 4l on steroid biosynthesis and metabolism in lung cancer cells, with the top five pathways being steroid biosynthesis, steroid metabolism, the metabolism of hydroxylated compounds, steroid biosynthesis, and cholesterol biosynthesis (Figure 4C). […] TM7SF2 has been identified as a critical regulator of cholesterol biosynthesis and steroid metabolism in lung cancer cells, a finding central to overcoming chemoresistance in NSCLC [28]. Thus, we selected TM7SF2 as the target gene for further experiments and investigated the protein expression of TM7SF2 in 4l-treated PC9/GR cells using immunoblotting.

PC9/GR cells [7] = assay: MTT anti-proliferation assay, gefitinib-resistant PC9/GR cells; conditions: for MTT, PC9/GR, value relative to control (=100), single replicate: 24 h
Protocol: (§5) To evaluate the tumor-selective activity of compounds 4l and 4m, dose–response studies were performed on wild-type PC9 and gefitinib-resistant PC9/GR cell lines. […] Subtoxic concentrations of 25, 50, and 75 μM were employed to ensure specificity for drug-resistant phenotypes while preserving normal cell viability. […] To assess long-term proliferative potential, clonogenic survival assays were performed. Cells pretreated with 4l (24 h) were trypsinized to generate single-cell suspensions, plated at 300 cells/well, and cultured for 14 days. […] Cell migration ability was evaluated by the scratch healing assay. […] To evaluate the pro-apoptotic efficacy of 4l, we employed a dual-staining approach using Annexin V-FITC and propidium iodide (PI) for quadrant-specific quantification of programmed cell death. Annexin V binds externalized phosphatidylserine (PS), a hallmark of early apoptosis, while PI permeabilization discriminates late-stage apoptotic or necrotic cells.
(§6) The human normal lung epithelial cell line BEAS-2B, non-small cell lung carcinoma (NSCLC) cell line PC9, and gefitinib-resistant PC9/GR cell line were purchased from Procell Life Science & Technology Co., Ltd. (Wuhan, China). All cell lines were maintained in RPMI-1640 medium (BI, Beit Haemek, Mateh Asher, Israel) supplemented with 10% fetal bovine serum (FBS, Gibco, Thermo Fisher Scientific, Waltham, MA, USA) and 1% penicillin–streptomycin–amphotericin B sterile solution (Solarbio, Beijing, China). Cells were cultured at 37 °C in a humidified incubator with 5% CO2. For subculturing, cells were harvested using trypsin-EDTA solution upon reaching 70–80% confluence and resuspended at appropriate densities for subsequent experiments.
(§7) MTT: Cells (5 × 10^4/mL) were treated with 4l (25–100 μM, 24–48 h), incubated with MTT (10 μL/well, 4–6 h), and dissolved in DMSO. Absorbance (490 nm) was measured to assess viability.

TM7SF2 [8] = assay: Western blot / immunofluorescence of TM7SF2 protein in PC9/GR cells; conditions: 4l-treated vs untreated PC9/GR, immunoblotting
From the text: as §4, §2

PC9 cells [9] = assay: MTT anti-proliferation assay, PC9 cells; conditions: for MTT, PC9, value relative to control (=100), single replicate: 24 h
Protocol: as §5, §6, §7

[10] = system: C/EBPβ binding to the TM7SF2 promoter region; assay: ChIP-qPCR of C/EBPβ binding to the TM7SF2 promoter; conditions: Anti-C/EBPβ group of PC9/GR cells treated with 4l
From the text: as §1
ChIP: 4l treated cells were crosslinked (1% formaldehyde, 20 min), lysed, and sonicated. Chromatin was immunoprecipitated with target antibodies, washed, and eluted. DNA was purified for qPCR.
qPCR: SYBR Green-based reactions (20 μL) included primers (0.4 μM each) and template DNA.

[11] = fourth column = 75 μM by match with b18
[12] = second column = 25 μM by match with b18
[13] = third column = 50 μM by match with b18
[14] = TM7SF2-overexpressing PC9/GR cells

Compound: O=C(NCCc1cc(Br)c(O)c(Br)c1)Nc1ccc(F)cc1 [4l, 1-(3,5-dibromo-4-hydroxyphenethyl)-3-(4-fluorophenyl)urea]
- relative wound healing area (PC9/GR cells [1]; 25 μM): 25.32%
- relative wound healing area (PC9/GR cells [1]; 50 μM): 27.45%
- relative wound healing area (PC9/GR cells [1]; 75 μM): 15.45%
- relative wound healing area, mean of replicates (PC9/GR cells [1]; [11]): 15.4595
- relative wound healing area, single replicate (PC9/GR cells [1]; [11]): 9.798 and 22.5542 and 10.9511 and 18.5341
- relative wound healing area, mean of replicates (PC9/GR cells [1]; [12]): 25.3251
- relative wound healing area, single replicate (PC9/GR cells [1]; [12]): 23.8842 and 10.9955 and 36.4639 and 29.9568
- relative wound healing area, mean of replicates (PC9/GR cells [1]; [13]): 27.4562
- relative wound healing area, single replicate (PC9/GR cells [1]; [13]): 33.9434 and 27.2189 and 28.6416 and 20.021
- C/EBPβ expression and p38 activation [2]: reduce C/EBPβ expression by inhibiting p38 activation
- intracellular cholesterol levels (PC9/GR cells [3]; PC9/GR, 24 h treatment): reduced intracellular cholesterol levels
- effect of TM7SF2 overexpression on the 4l-induced change in intracellular cholesterol (PC9/GR cells [3]; [14]): abrogated the reduction in intracellular cholesterol levels
- intracellular cholesterol levels (PC9 cells [4]): no significant effect
- PC9/GR cell motility (Transwell migration) (PC9/GR cells [5]; 25, 50 and 75 μM): significant suppression
- effect of TM7SF2 overexpression on 4l inhibition of migration, proliferation and invasion (PC9/GR cells [5]; [14]): attenuated the inhibitory effects
- TM7SF2 gene expression (differentially expressed genes) (TM7SF2 [6]): significantly downregulated
- MTT, PC9/GR, value relative to control (=100), single replicate (PC9/GR cells [7]; 25 (μM)): 50.73 and 45.72 and 48.62 and 42.88
- MTT, PC9/GR, value relative to control (=100), single replicate (PC9/GR cells [7]; 50 (μM)): 40.96 and 39.65 and 38.32 and 38.58
- MTT, PC9/GR, value relative to control (=100), single replicate (PC9/GR cells [7]; 75 (μM)): 35.79 and 34.89 and 36.33 and 34.75
- MTT, PC9/GR, value relative to control (=100), single replicate (PC9/GR cells [7]; 100 (μM)): 32.66 and 25.67 and 34.43 and 24.78
- IC50 (PC9/GR cells [7]; Homo sapiens, gefitinib-resistant PC9/GR, MTT, 24-hour treatment, 0–100 μM, read-out: IC50, growth inhibition): 35.2 µM
- TM7SF2 protein expression level (TM7SF2 [8]): significantly reduced
- MTT, PC9, value relative to control (=100), single replicate (PC9 cells [9]; 25 (μM)): 96.45 and 96.61 and 99.63 and 98.61
- MTT, PC9, value relative to control (=100), single replicate (PC9 cells [9]; 50 (μM)): 81.78 and 87.43 and 80.72 and 89.73
- MTT, PC9, value relative to control (=100), single replicate (PC9 cells [9]; 75 (μM)): 88.89 and 73.34 and 79.63 and 70.04
- MTT, PC9, value relative to control (=100), single replicate (PC9 cells [9]; 100 (μM)): 57.64 and 69.62 and 60.69 and 61.33
- IC50 (PC9 cells [9]; Homo sapiens, PC-9, wild-type PC9, MTT, 24-hour treatment, 0–100 μM, read-out: IC50, growth inhibition): 136 µM
- C/EBPβ binding to TM7SF2 promoter (specific amplification bands) [10]: did not show specific amplification bands

From publication PMC12471852, “Design and Synthesis of Marine-Inspired Itampolin A Derivatives to Overcome Chemoresistance in NSCLC via Cholesterol Homeostasis Modulation” (Marine Drugs, 2025)
